Values joined by “and” are separate entries in the source; they are usually repeats but may differ in a detail not shown here. Identical values can stand only once.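 Tested at 5 concentrations; 48 h exposure; 96-well plates; endpoints linearly interpolated, else capped at highest concentration. Abbreviation: GI50, concentration required for 50% inhibition of growth. Definition used: TGI = concentration required for complete inhibition of growth.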
Tests used:
Assay in all cases: NCI tumour cell line growth inhibition, 48 h
SNB-75 CNS = tested on: SNB-75 CNS
UACC-62 melanoma = tested on: UACC-62 melanoma
UACC-257 melanoma = tested on: UACC-257 melanoma
ACHN renal = tested on: ACHN renal
UO-31 renal = tested on: UO-31 renal
NCI-H460 lung = tested on: NCI-H460 lung
SK-MEL-28 melanoma = tested on: SK-MEL-28 melanoma
OVCAR-8 ovarian = tested on: OVCAR-8 ovarian
SNB-19 CNS = tested on: SNB-19 CNS
NCI-H23 lung = tested on: NCI-H23 lung

Compound | TGI (SNB-75 CNS) | TGI (UACC-62 melanoma) | TGI (UACC-257 melanoma) | TGI (ACHN renal) [µM] | TGI (UO-31 renal) | TGI (NCI-H460 lung) [µM] | TGI (SK-MEL-28 melanoma) | TGI (OVCAR-8 ovarian) [µM] | TGI (SNB-19 CNS) [µM] | TGI (NCI-H23 lung) [µM] | GI50 (SNB-75 CNS) [µM] | GI50 (UACC-62 melanoma) [µM] | GI50 (UACC-257 melanoma) [µM] | GI50 (ACHN renal) [µM] | GI50 (UO-31 renal) [µM] | GI50 (NCI-H460 lung) [µM] | GI50 (SK-MEL-28 melanoma) [µM] | GI50 (OVCAR-8 ovarian) [µM] | GI50 (SNB-19 CNS) [µM] | GI50 (NCI-H23 lung) [µM]
CCOC(=O)C1N(S(=O)(=O)c2ccc(C)cc2)CCC12c1ccccc1N(C(C)=O)C2C(/C=C/C(=O)OC)=C/C(=O)OC (centres undefined) | > 100 µM | > 100 µM | > 100 µM | > 100 | > 100 µM | > 100 | > 100 µM | > 100 | > 100 | > 100 | – | – | – | – | – | – | – | – | – | –
CC(C)[C@@H]1C=C(c2ccccc2)c2ccccc2C1C(C#N)(C#N)C(C)C (some centres undefined) | > 100 µM | > 100 µM | > 100 µM | > 100 | > 100 µM | > 100 | > 100 µM | > 100 | > 100 | > 100 | – | – | – | – | – | – | – | – | – | –
CC[C@@]1(O)C(=O)NCc2c1cc1n(c2=O)Cc2cc3ccccc3nc2-1 | > 28.5 µM | > 100 µM | > 59.1 µM | – | 13.1 µM | > 59.2 | > 100 µM | > 44.8 | > 100 | 5.86 | 4.22 | 1.87 | 7.95 | 0.578 | 1.77 | 0.556 | > 53.7 | 2.12 | 1.92 | 1.8
Cc1cnc[nH]c1=O | > 100 µM | > 100 µM | > 100 µM | > 100 | > 100 µM | > 100 | > 100 µM | > 100 | > 100 | > 100 | – | – | – | – | – | – | – | – | – | –
COC(=O)C[CH](C(=O)OC)[Ge]([CH3])([CH3])[S]c1ccccc1 (centres undefined) | 72.2 µM | 36.2 µM | > 100 µM | 36.6 | 21 µM | 28.8 | 65.7 µM | 76.9 | 49.9 | 64.7 | 22.1 | 15.8 | 33 | 18.4 | 7.06 | 15.5 | 23.3 | 19.3 | 19.5 | 22.9
N/C(=N\NS(=O)(=O)c1ccccc1)Oc1ccc(Cl)cc1 | > 100 µM | > 100 µM | > 100 µM | > 100 | > 100 µM | > 100 | > 100 µM | > 100 | > 100 | > 100 | – | – | – | – | – | – | – | – | – | –
C/C1=C\[C@H](C)C[C@H](C)OC(=O)C[C@H](c2ccc(O)cc2)NC(=O)[C@@H](Cc2c(Br)[nH]c3ccccc23)N(C)C(=O)[C@H](C)NC(=O)[C@@H](C)C1 | 0.175 µM and 0.0335 µM | 0.9 µM and 1.44 µM | 0.37 µM and 1.15 µM | 0.0894 | 0.351 µM and 0.238 µM | 23.6 | 0.308 µM and 1.74 µM | 0.568 | 0.0568 | 1.05 | 0.0168 | 0.0414 | 0.0747 | 0.0228 | 0.0968 | 0.0126 | 0.0272 | 0.0516 | 0.0232 | 0.114
C(=N\Nc1nnc2c(n1)[nH]c1ccccc12)/c1cccnc1 | > 100 µM | > 100 µM | > 100 µM | > 100 | > 100 µM | > 100 | > 100 µM | > 100 | > 100 | > 100 | – | – | – | – | – | – | – | – | – | –
O=c1[nH]cc(CS(=O)(=O)Cc2c[nH]c(=O)[nH]c2=O)c(=O)[nH]1 | > 100 µM | > 100 µM | > 100 µM | > 100 | > 100 µM | > 100 | > 100 µM | > 100 | > 100 | > 100 | – | – | – | – | – | – | – | – | – | –
O=C1c2ccccc2C(=O)c2c(NCCCNCCO)ccc(NCCCNCCO)c21 | 23.3 µM | 24.6 µM | 46.8 µM | 25.5 | 28.4 µM | 15.5 | 16.8 µM | 31 | 20.9 | 23.9 | – | – | – | – | – | – | – | – | – | –
C/C(=C\c1ccc(Cl)cc1)C(C)(C)C(=O)O | > 100 µM | > 100 µM | > 100 µM | > 100 | > 100 µM | > 100 | > 100 µM | > 100 | > 100 | > 100 | – | – | – | – | – | – | – | – | – | –
CCCCCCCCCCCC(=O)OCC1OC(n2cc(F)c(=O)[nH]c2=O)C(NC(=O)OCc2ccccc2)C(O)C1O (centres undefined) | 28.1 µM | 38.6 µM | 50.8 µM | > 100 | 93 µM | 34.3 | 35.4 µM | 43.7 | 75.5 | 93.6 | – | – | – | – | – | – | – | – | – | –
COc1ccc(-c2ccc3c(NC(=O)C4CC4)n[nH]c3n2)cc1 | > 17.2 µM | > 25 µM | > 25 µM | > 25 | > 25 µM | > 25 | > 25 µM | > 25 | > 25 | > 25 | 5.1 | > 25 | > 25 | > 25 | > 20 | > 25 | > 25 | 11.7 | 15.9 | > 25

Source: PubChem BioAssay (NCI)
